Values joined by “and” are separate entries in the source; they are usually repeats but may differ in a detail not shown here. Equal entries are not always repeated.

Holding throughout (format): in vivo
For test [1], the system named is Polygonum pensylvanicum L. (POLPY). The test is described as follows: Postemergence herbicidal mixtures for weed control in direct seeded rice (greenhouse, visual % injury). As to conditions: for % Injury Ob: POLPY.
Test [2] relates to Fimbristylis miliacea (L.) VAHL (FIMMI). The test is described as above. As to conditions: for % Injury Ob: FIMMI.
Test [3] concerns Cyperus esculentus L. (CYPES). The description is as above. As to conditions: CYPES.
In test [4] the test system is Scirpus maritimus L. (SCPMA). Described as above. As to conditions: for % Injury Ob: SCPMA.
Another test relates to Cyperus iria L. (CYPIR). Described as above. As to conditions: CYPIR.
For test [5], the system named is Ischaemum rugosum SALISB. (ISCRU). Described as above. As to conditions: ISCRU.
Test [6] concerns Brachiaria platyphylla (BRISEB.) NASH (BRAPP). Described as above.
The test system of test [7] is wild oats (Avena fatua L; AVEFA). Description: Postemergence herbicidal activity of mixtures in cereal crops (greenhouse, visual injury). As to conditions: 2.5 g/ha, Table 14. The essentials: (§1)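 Plants at second-third true leaf stage sprayed postemergence at 187 L/ha with compound and second cereal herbicide alone and combined; solvent blank controls. Visual injury scored 0-100% versus controls after 20-22 days; expected mixture effects by Colby's equation.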

Test [8] relates to windgrass (Apera spica-venti L; APESV). Described as above. As to conditions: Apera spica-venti, post-emergence, 2.5 g/ha, Table 14; read-out: APESV Ob. The essentials: as §1
For test [9], the system named is blackgrass (Alopecurus myosuroides L; ALOMY). Description: Postemergence herbicidal activity of mixtures in cereal crops (greenhouse, visual injury 0-100 percent after 20-22 days). As to conditions: 2.5 g/ha. On the procedure: Seeds of the desired test plant species were planted in Sun Gro MetroMix® 306 planting mixture, which typically has a pH of 6.0 to 6.8 and an organic matter content of about 30 percent, in plastic pots with a surface area of 103.2 square centimeters (cm^2). […] The plants were grown for 7-36 days in a greenhouse with an approximate 14 hour photoperiod which was maintained at about 18° C. during the day and 17° C. during the night. Nutrients and water were added on a regular basis and supplemental lighting was provided with overhead metal halide 1000-Watt lamps as necessary. The plants were employed for testing when they reached the second or third true leaf stage.
Treatments consisted of compound (as listed in Tables 1 through 64) and a second cereal herbicide alone and in combination. […] The concentrated stock solutions were diluted to 1.5 mg ai/mL with the addition of 2 volumes of an aqueous mixture containing acetone, water, isopropyl alcohol, DMSO, Agri-dex crop oil concentrate, and Triton® X-77 surfactant in a 64.7:26.0:6.7:2.0:0.7:0.01 v/v ratio. A dilution solution was prepared by mixing 1 volume of 97:3 v/v acetone/DMSO and 2 volumes of an aqueous mixture containing acetone, water, isopropyl alcohol, DMSO, Agri-dex crop oil concentrate, and Triton® X-77 surfactant in a 64.7:26.0:6.7:2.0:0.7:0.01 v/v ratio. Compound requirements are based upon a 12 mL application volume at a rate of 187 liters per hectare (L/ha). […] Formulated compounds were applied to the plant material with an overhead Mandel track sprayer equipped with 8002E nozzles calibrated to deliver 187 L/ha over an application area of 0.503 square meters (m^2) at a spray height of 18 inches […] above average plant canopy. Control plants were sprayed in the same manner with the solvent blank.
The treated plants and control plants were placed in a greenhouse as described above and watered by sub-irrigation to prevent wash-off of the test compounds. After 20-22 days, the condition of the test plants as compared with that of the control plants was determined visually and scored on a scale of 0 to 100 percent where 0 corresponds to no injury and 100 corresponds to complete kill.
Colby's equation was used to determine the herbicidal effects expected from the mixtures (Colby, S. R. 1967. Calculation of the synergistic and antagonistic response of herbicide combinations. Weeds 15:20-22.).
The following equation was used to calculate the expected activity of mixtures containing two active ingredients, A and B: Expected=A+B−(A×B/100)

For test [10], the system named is Canada thistle (Cirsium arvense L; CIRAR). The test is described as follows: Postemergence herbicidal activity of mixtures in cereal crops (greenhouse, visual injury). As to conditions: 3.75 g/ha. The essentials:
(§2)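 Weeds grown in greenhouse (~14 h photoperiod, ~18/17 °C day/night) to second–third true leaf stage, sprayed postemergence with compound and second cereal herbicide alone or combined; solvent-blank controls. Injury scored visually after 20-22 days, 0–100% (complete kill); expected mixture activity = A+B−(A×B/100).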

In test [11] the test system is green foxtail (Setaria viridis L; SETVI). The test is described as above. As to conditions: 2.5 g/ha, Table 7. The essentials:
(§3)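 Greenhouse postemergence; 2–3 true leaves; ~14 h light, ~18/17 °C. Cpd A or B (Me ester, TEA, K salt) ± 2nd cereal herbicide, solo and 2-/3-way mixes, 187 L/ha in acetone/DMSO-based carrier with crop oil concentrate and Triton X-77. Subirrigated; % injury at 20–22 d. Colby expected.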

Test [12] deals with Italian ryegrass (Lolium multiflorum L; LOLMU). The test is described as above. As to conditions: 2.5 g/ha, Table 14. The essentials: as §3
Test [13] has as its system bird's-eye speedwell (Veronica persica L; VERPE). The test is described as above. As to conditions: 70 g/ha alone. The essentials:
as §2

The subject of test [14] is wild pansy (Viola tricolor L; VIOTR). The test is described as above. As to conditions: 70 g/ha alone. The essentials: as §2
Test [15] has as its system chickweed (Stellaria media L; STEME). The description is as above. As to conditions: 70 g/ha alone. The essentials:
as §3

Test [16] has as its system wild buckwheat (Polygonum convolvulus L; POLCO). The test is described as above. As to conditions: 70 g/ha alone. The essentials: as §3
Test [17] deals with lady's-thumb (Polygonum persicaria L; POLPE). The description is as above. As to conditions: 70 g/ha alone. The essentials: as §3
The test system of a further test is Cyperus species (CYPSS). Description: Herbicidal mixtures for weed control in transplanted paddy rice (in-water application, visual % injury). As to conditions: CYPES = Cyperus esculentus. On the procedure:
Weed seeds or nutlets of the desired test plant species were planted in puddled soil (mud) prepared by mixing a non-sterilized mineral soil (28 percent silt, 18 percent clay, and 54 percent sand, with a pH of about 7.3 to 7.8 and an organic matter content of about 1.0 percent) and water at a ratio of 100 kilograms (kg) of soil to 19 L of water. The prepared mud was dispensed in 250 mL aliquots into 480 mL non-perforated plastic pots with a surface area of 91.6 square centimeters leaving a headspace of 3 centimeters in each pot. Rice seeds were planted in Sun Gro MetroMix® 306 planting mixture, which typically has a pH of 6.0 to 6.8 and an organic matter content of about 30 percent, in plastic plug trays. Seedlings at the second or third leaf stage of growth were transplanted into 650 mL of mud contained in 960 mL non-perforated plastic pots with a surface area of 91.6 cm^2 4 days prior to herbicide application. The paddy was created by filling the 3 centimeter headspace of the pots with water. When required to ensure good germination and healthy plants, a fungicide treatment and/or other chemical or physical treatment was applied. The plants were grown for 4-14 days in a greenhouse with an approximate 14 hr photoperiod which was maintained at about 29° C. during the day and 26° C. during the night. Nutrients were added as Osmocote (17:6:10, N:P:K+minor nutrients) at 2 g per cup. Water was added on a regular basis to maintain the paddy flood, and supplemental lighting was provided with overhead metal halide 1000-Watt lamps as necessary. The plants were employed for testing when they reached the second or third true leaf stage.
Treatments consisted of esters or salts of compound A, compound C, or compound D and various herbicidal components alone and in combination. For technical grade compounds, a weighed amount, determined by the highest rate to be tested, was placed in an individual 120 mL glass vial and was dissolved in 20 mL of acetone to obtain concentrated stock solutions. […] The concentrated stock solutions obtained were diluted with 20 mL of an aqueous mixture containing 2.5% Agri-dex crop oil concentrate (v/v). For formulated compounds, a measured amount, determined by the highest rate to be tested, was placed in an individual 120 mL glass vial and was dissolved in 20 mL of 2.5% (v/v) Agri-dex crop oil concentrate to obtain concentrated stock solutions. The concentrated stock solutions obtained were diluted with 20 mL of acetone. Applications were made by injecting an appropriate amount of the stock solution into the aqueous layer of the paddy. Control plants were treated in the same manner with the solvent blank. All treated plant material received the same concentration of acetone and crop oil concentrate.
Forms of compounds A, C, and D were applied on an acid equivalent basis. Other herbicidal components were applied on an active ingredient basis and included acetolactate synthase (ALS)-inhibiting herbicides penoxsulam (triazolopyrimidine chemical class) applied as Grasp SC, […] (sulfonylurea chemical class) applied as Sirius G, and bensulfuron-methyl (sulfonylurea chemical class) applied as Londax; acetyl CoA carboxylase (ACCase) inhibiting herbicides cyhalofop-butyl applied as Clincher G and fenoxaprop-p-ethyl applied as Ricestar HT; auxinic herbicide quinclorac applied as Facet 75 DF; phytoene desaturase inhibiting herbicide norflurazon; and p-hydroxyphenylpyruvate dioxygenase (HPPD) inhibiting herbicide sulcotrione applied as Mikado.
The treated plants and control plants were placed in a greenhouse as described above and water was added as needed to maintain a paddy flood. After 3 weeks the condition of the test plants as compared with that of the untreated plants was determined visually and scored on a scale of 0 to 100 percent where 0 corresponds to no injury and 100 corresponds to complete kill.

With `C=CCOC(=O)c1nc(-c2ccc(Cl)c(OC)c2F)cc(N)c1Cl` [Compound A Allyl], the “% Injury Ob” value is listed as 90% in test [1] (17.5 g/ha alone); 70% in test [1] (35 g/ha alone); 0% in [2] (8.75 g/ha alone); 60% in test [2] (35 g/ha alone); 50% in test [3] (17.5 g/ha alone); 95% in test [3] (35 g/ha alone). Also, the “% Injury Ob” value in test [4] (17.5 g/ha alone) is 10%; in test [4] (35 g/ha alone) it was 20%; in the test with Cyperus iria L. (CYPIR) (17.5 g/ha alone) it was 35%; in the test with Cyperus iria L. (CYPIR) (35 g/ha alone), 85%; in [5] (8.75 g/ha alone) it was 10%; in [5] (17.5 g/ha alone), 40%. For the same molecule, the “% Injury Ob” value in [6] (4.38 g/ha alone) is 80%; in test [6] (8.75 g/ha alone), 60% and 80% and 100%; in test [6] (17.5 g/ha alone), 99%. Besides, the “% Injury POLPY Ob” value in [1] (alone 17.5 g/ha) was 70%. Also, the “% Injury FIMMI Ob” value in test [2] (alone 17.5 g/ha) was 40%. The “% Injury SCPMA Ob” value in test [4] (alone 17.5 g/ha) is 0%.
Take `COc1nc(C)nc(NC(=O)NS(=O)(=O)c2cc(I)ccc2C(=O)O)n1` [Iodosulfuron, 4-iodo-2-[[[[(4-methoxy-6-methyl-1,3,5-triazin-2-yl)amino]carbonyl]amino]sulfonyl]benzoic acid, reference compound]: the “AVEFA Ob” value in test [7] is reported as 35%. For the same molecule, in [8], the pest or weed control at 2.5 g/ha worked out at 68%. Besides, the “ALOMY Ob” value in test [9] (Table 7) and in test [9] (Table 14) was 50% each time. Also, the “CIRAR Ob” value in [10] amounted to 50%. The “SETVI Ob” value in [11] is reported as 0%. The “LOLMU Ob” value in test [12] is 53%.
As to `CCCCC(CC)COC(=O)COc1ccc(Cl)cc1C` (stereo not shown) [MCPA EHE], the “% Injury Ob” value in [2] (70 g/ha alone), in test [2] (140 g/ha alone), in test [5] (70 g/ha alone), in [5] (140 g/ha alone), in test [6] (70 g/ha alone) and in [6] (140 g/ha alone) was 0% each time.
Regarding `Cc1cc(Cl)ccc1OCC(=O)O` [MCPA], the “VERPE Ob” value in test [13] worked out at 10%. For the same molecule, in [14], the “VIOTR Ob” value is reported as 17%. Moreover, the “STEME Ob” value in test [15] came to 7%. Besides, the “POLCO Ob” value in [16] worked out at 7%. For the same molecule, in test [17], the “POLPE Ob” value turned out to be 23%.
As to `CNc1cnn(-c2cccc(C(F)(F)F)c2)c(=O)c1Cl` [Norflurazon], the “% Injury CYPES Ob” value with Cyperus species (CYPSS) (Norflurazon 70 g/ha alone (Compound A Methyl half)) and in the test on Cyperus species (CYPSS) (Norflurazon 70 g/ha alone (Compound A TEA half)) was 0% in each case. For the same molecule, the “% Injury Ob” value came out at 0% in test [2] (560 g/ha alone); 0% in test [3] (560 g/ha alone); 60% in test [4] (560 g/ha alone); 0% in the test with Cyperus iria L. (CYPIR) (560 g/ha alone); 0% in [6] (70 g/ha alone).

Source of the values: patent publication US10556865B2, “Synergistic herbicidal composition containing certain pyridine or pyrimidine carboxylic acids and certain cereal and rice herbicides” (Dow AgroSciences, LLC, priority 2007, dated 2020).
